Activity data for 6 compounds are collected here from ChEMBL document CHEMBL1159298, “Leonticins A-C, three octasaccharide saponins from Leontice kiangnanensis” (J Nat Prod, 1996).

Calls of active or inactive are those of the source. The rule behind the calls is not given here.

The subject of this assay is KB. The assay is described as follows: Cytotoxicity against human KB cells at 4 ug/ml. It counts as functional, cell-based.
With `C[C@@H]1O[C@@H](O[C@H]2CC[C@]3(C)[C@H]4CC=C5[C@@H]6CC(C)(C)CC[C@]6(C(=O)O)CC[C@@]5(C)[C@]4(C)CC[C@H]3C2(C)C)[C@H](O[C@@H]2O[C@H](CO)[C@@H](O)[C@H](O)[C@H]2O)[C@H](O[C@@H]2O[C@H](CO)[C@@H](O[C@@H]3O[C@H](CO)[C@H](O)[C@H](O[C@@H]4OC[C@@H](O)[C@H](O)[C@H]4O)[C@H]3O)[C@H](O)[C@H]2O)[C@H]1O`, the outcome was inactive. Consider `C[C@@H]1O[C@@H](O[C@H]2[C@H](O)[C@@H](O)[C@H](O[C@H]3[C@H](O)[C@@H](O)[C@H](O[C@@H]4[C@@H](O)[C@@H](O)[C@H](O[C@H]5[C@H](O)[C@@H](O)[C@H](O[C@H]6[C@H](O)[C@@H](O)[C@H](OC(=O)[C@]78CCC(C)(C)C[C@H]7C7=CC[C@@H]9[C@@]%10(C)CC[C@H](O[C@@H]%11O[C@@H](C)[C@H](O)[C@@H](O)[C@H]%11O[C@@H]%11O[C@H](CO)[C@@H](O)[C@H](O)[C@H]%11O)[C@@](C)(CO)[C@@H]%10CC[C@@]9(C)[C@]7(C)CC8)O[C@@H]6CO)O[C@@H]5CO)O[C@H]4C)O[C@@H]3CO)O[C@@H]2CO)[C@H](O)[C@H](O)[C@H]1O`, for which the result was inactive.

Consider `C[C@@H]1O[C@@H](O[C@H]2[C@H](O)[C@@H](O)[C@H](O[C@H]3[C@H](O)[C@@H](O)[C@H](OC(=O)[C@]45CCC(C)(C)C[C@H]4C4=CC[C@@H]6[C@@]7(C)CC[C@H](O[C@@H]8O[C@@H](C)[C@H](O)[C@@H](O[C@@H]9O[C@H](CO)[C@@H](O[C@@H]%10O[C@H](CO)[C@H](O)[C@H](O[C@@H]%11OC[C@@H](O)[C@H](O)[C@H]%11O)[C@H]%10O)[C@H](O)[C@H]9O)[C@H]8O[C@@H]8O[C@H](CO)[C@@H](O)[C@H](O)[C@H]8O)C(C)(C)[C@@H]7CC[C@@]6(C)[C@]4(C)C[C@H]5O)O[C@@H]3CO)O[C@@H]2CO)[C@H](O)[C@H](O)[C@H]1O`, for which the result was inactive. Turning to `C[C@@H]1O[C@@H](O[C@H]2[C@H](O)[C@@H](O)[C@H](O[C@H]3[C@H](O)[C@@H](O)[C@H](OC(=O)[C@]45CCC(C)(C)C[C@H]4C4=CC[C@@H]6[C@@]7(C)CC[C@H](O[C@@H]8O[C@@H](C)[C@H](O)[C@@H](O[C@@H]9O[C@H](CO)[C@@H](O[C@@H]%10O[C@H](CO)[C@H](O)[C@H](O[C@@H]%11OC[C@@H](O)[C@H](O)[C@H]%11O)[C@H]%10O)[C@H](O)[C@H]9O)[C@H]8O[C@@H]8O[C@H](CO)[C@@H](O)[C@H](O)[C@H]8O)C(C)(C)[C@@H]7CC[C@@]6(C)[C@]4(C)CC5)O[C@@H]3CO)O[C@@H]2CO)[C@H](O)[C@H](O)[C@H]1O`, the result was inactive.

With `C[C@@H]1O[C@@H](O[C@H]2CC[C@]3(C)[C@H]4CC=C5[C@@H]6CC(C)(C)CC[C@]6(C(=O)O)[C@H](O)C[C@@]5(C)[C@]4(C)CC[C@H]3C2(C)C)[C@H](O[C@@H]2O[C@H](CO)[C@@H](O)[C@H](O)[C@H]2O)[C@H](O[C@@H]2O[C@H](CO)[C@@H](O[C@@H]3O[C@H](CO)[C@H](O)[C@H](O[C@@H]4OC[C@@H](O)[C@H](O)[C@H]4O)[C@H]3O)[C@H](O)[C@H]2O)[C@H]1O`, the result was inactive. Under `C[C@@H]1O[C@@H](O[C@H]2CC[C@@]3(C)[C@@H](CC[C@]4(C)[C@@H]3CC=C3[C@@H]5CC(C)(C)CC[C@]5(C(=O)O)CC[C@]34C)[C@]2(C)CO)[C@H](O[C@@H]2O[C@H](CO)[C@@H](O)[C@H](O)[C@H]2O)[C@H](O)[C@H]1O` stands “inactive”.
